Laboratory results from patent US9012507B2, “Lipid-lowering antidiabetic agent” (Thetis Pharmaceuticals LLC, priority 2011, dated 2015).

How the values were obtained:
[1] = Water solubility: distilled water added in portions until a clear solution
Procedure: Measurement of the water solubility of the test compounds is accomplished by using methods well known to those skilled in the art. […] The total volume of the solution is measured. […] This is a clear indication of an unexpectedly high degree of bioavailability of the compositions of the invention. Highly water soluble medicinal preparations, when administered orally, result in efficient absorption of such preparations from the gastrointestinal tract into systemic circulation. Such preparations permit rapid absorption into the blood stream resulting in a high concentration of the active agent in the blood. Furthermore, water soluble preparations are especially suitable for parenteral administration, for example, intravenous administration.

[2] = Air and light sensitivity observed on isolation and storage; format: physicochemical; conditions: isolated solid; therefore stored in an amber vial under nitrogen
Procedure: The reaction flask was covered in foil to protect it from light. After stirring for 1 h at room temperature, the mixture was chilled to 0° C. for 1 h, and then filtered under an atmosphere of nitrogen. The solid was washed with 50 mL ice-cold acetonitrile and then quickly transferred to a foil-covered round bottom flask and placed under high vac.

CC/C=C\C/C=C\C/C=C\C/C=C\C/C=C\CCCC(=O)O.CN(C)C(=N)NC(=N)N [Example 1, {[Amino(imino)methyl]amino}(dimethylamino)methaniminium (5Z,8Z,11Z,14Z,17Z)-eicosa-5,8,11,14,17-pentaenoate]
times more soluble in water than EPA ([1]; ratio of water solubility versus EPA itself): ≥ 250 times
sensitivity to air and light [2]: air and light sensitive

CC/C=C\C/C=C\C/C=C\C/C=C\C/C=C\CCCC(=O)O [EPA, (5Z,8Z,11Z,14Z,17Z)-eicosa-5,8,11,14,17-pentaenoic acid, reference compound]
solubility ([1]; water, thermodynamic from solid): < 200 µg/mL
